Measurements from patent US20070037837A1, “Quinazoline derivatives” (priority 2003, published 2007).

Legend:
erbB2 tyrosine kinase = molecular target: T1, erbB2 tyrosine kinase (Homo sapiens, UniProt P04626); test: Protein tyrosine kinase phosphorylation assay, Test (a), erbB2; type: biochemical; settings: recombinant intracellular fragment, ATP at Km; read-out: IC50 Test (a): Inhibition of erbB2 tyrosine kinase protein phosphorylation
T1 construct: Recombinant intracellular fragments of EGFR, erbB2 and erbB4; made in house; host or cells: baculovirus/Sf21 insect cells (cleared lysate used)
T1 sequence (P04626 676-1255 limits assumed): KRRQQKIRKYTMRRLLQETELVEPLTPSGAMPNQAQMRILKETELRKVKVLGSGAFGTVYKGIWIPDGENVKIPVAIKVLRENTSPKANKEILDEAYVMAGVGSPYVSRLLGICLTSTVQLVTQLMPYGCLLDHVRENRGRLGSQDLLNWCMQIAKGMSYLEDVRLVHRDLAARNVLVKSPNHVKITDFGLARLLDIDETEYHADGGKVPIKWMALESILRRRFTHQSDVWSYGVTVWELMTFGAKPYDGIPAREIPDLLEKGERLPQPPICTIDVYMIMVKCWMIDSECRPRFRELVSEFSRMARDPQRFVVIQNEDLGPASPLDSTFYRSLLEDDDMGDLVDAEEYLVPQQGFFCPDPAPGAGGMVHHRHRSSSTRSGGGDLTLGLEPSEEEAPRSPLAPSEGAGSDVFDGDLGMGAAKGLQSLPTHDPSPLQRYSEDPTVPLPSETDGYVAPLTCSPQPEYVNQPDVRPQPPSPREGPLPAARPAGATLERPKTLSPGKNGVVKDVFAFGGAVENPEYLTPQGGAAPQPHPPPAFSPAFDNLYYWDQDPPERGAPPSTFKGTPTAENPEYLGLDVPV
Method: (§1) This test measures the ability of a test compound to inhibit the phosphorylation of a tyrosine containing polypeptide substrate by EGFR and erbB2 tyrosine kinase enzyme.
(§2) Recombinant intracellular fragments of EGFR, erbB2 and erbB4 (accession numbers X00588, X03363 and L07868 respectively) were cloned and expressed in the baculovirus/Sf21 system. Lysates were prepared from these cells by treatment with ice-cold lysis buffer (20 mM N-2-hydroxyethylpiperizine-N′-2-ethanesulfonic acid (HEPES) pH 7.5, 150 mM NaCl, 10% glycerol, 1% Triton X-100, 1.5 mM MgCl2, 1 mM ethylene glycol-bis(β-aminoethyl ether) N′,N′,N′,N′-tetraacetic acid (EGTA), plus protease inhibitors and then cleared by centrifugation.
Constitutive kinase activity of the recombinant protein was determined by its ability to phosphorylate a synthetic peptide (made up of a random co-polymer of Glutamic Acid, Alanine and Tyrosine in the ratio of 6:3:1). Specifically, Maxisorb™ 96-well immunoplates were coated with synthetic peptide (0.2 μg of peptide in a 100 μl phosphate buffered saline (PBS) solution and incubated at 4° C. overnight). Plates were washed in PBS-T (phosphate buffered saline with 0.5% Tween 20) then in 50 mM HEPES pH 7.4 at room temperature to remove any excess unbound synthetic peptide. EGFR, ErbB2 or ErbB4 tyrosine kinase activity was assessed by incubation in peptide coated plates for 20 minutes at 22° C. in 100 mM HEPES pH 7.4, adenosine trisphosphate (ATP) at Km concentration for the respective enzyme, 10 mM MnCl2, 0.1 mM Na3VO4, 0.2 mM DL-dithiothreitol (DTT), 0.1% Triton X-100 with test compound in DMSO (final concentration of 2.5%). Reactions were terminated by the removal of the liquid components of the assay followed by washing of the plates with PBS-T.
The immobilised phospho-peptide product of the reaction was detected by immunological methods. Firstly, plates were incubated for 90 minutes at room temperature with anti-phosphotyrosine primary antibodies that were raised in the mouse (4G10 from Upstate Biotechnology). Following extensive washing, plates were treated with Horseradish Peroxidase (HRP) conjugated sheep anti-mouse secondary antibody (NXA931 from Amersham) for 60 minutes at room temperature. After further washing, HRP activity in each well of the plate was measured colorimetrically using 22′-Azino-di-[3-ethylbenzthiazoline sulfonate (6)] diammonium salt crystals (ABTS™ from Roche) as a substrate.
(§3) Quantification of colour development and thus enzyme activity was achieved by the measurement of absorbance at 405 nm on a Molecular Devices ThermoMax microplate reader. Kinase inhibition for a given compound was expressed as an IC50 value. […] The range of phosphorylation was calculated from the positive (vehicle plus ATP) and negative (vehicle minus ATP) control values.

KB cells = test: EGFR driven KB cell proliferation assay, Test (b); type: cell-based; settings: Homo sapiens, 96 h, EGF 1 ng/ml, 4 days, MTT
Method: This assay measures the ability of a test compound to inhibit the proliferation of KB cells (human naso-pharangeal carcinoma obtained from the American Type Culture Collection (ATCC).
KB cells (human naso-pharangeal carcinoma obtained from the ATCC were cultured in Dulbecco's modified Eagle's medium (DMEM) containing 10% foetal calf serum, 2 mM glutamine and non-essential amino acids at 37° C. in a 7.5% CO2 air incubator. Cells were harvested from the stock flasks using Trypsin/ethylaminediaminetetraacetic acid (EDTA). Cell density was measured using a haemocytometer and viability was calculated using trypan blue solution before being seeded at a density of 1.25×10^3 cells per well of a 96 well plate in DMEM containing 2.5% charcoal stripped serum, 1 mM glutamine and non-essential amino acids at 37° C. in 7.5% CO2 and allowed to settle for 4 hours.
Following adhesion to the plate, the cells are treated with or without EGF (final concentration of 1 ng/ml) and with or without compound at a range of concentrations in dimethylsulfoxide (DMSO) (0.1% final) before incubation for 4 days. Following the incubation period, cell numbers were determined by addition of 50 μl of 3-(4,5-Dimethylthiazol-2-yl)-2,5-diphenyltetrazolium bromide (MTT) (stock 5 mg/ml) for 2 hours. MTT solution was then tipped off, the plate gently tapped dry and the cells dissolved upon the addition of 100 μl of DMSO.
Absorbance of the solubilised cells was read at 540 nm using a Molecular Devices ThermoMax microplate reader. Inhibition of proliferation was expressed as an IC50 value. This was determined by calculation of the concentration of compound that was required to give 50% inhibition of proliferation. The range of proliferation was calculated from the positive (vehicle plus EGF) and negative (vehicle minus EGF) control values.

EGFR tyrosine kinase = molecular target: T2, EGFR tyrosine kinase (Homo sapiens, UniProt P00533); test: Protein tyrosine kinase phosphorylation assay, Test (a), EGFR; type: biochemical; settings: recombinant intracellular fragment, ATP at Km; read-out: IC50 Test (a): Inhibition of EGFR tyrosine kinase protein phosphorylation
T2 construct: Recombinant intracellular fragments of EGFR, erbB2 and erbB4; made in house; host or cells: baculovirus/Sf21 insect cells (cleared lysate used)
T2 sequence (P00533 669-1210 limits assumed): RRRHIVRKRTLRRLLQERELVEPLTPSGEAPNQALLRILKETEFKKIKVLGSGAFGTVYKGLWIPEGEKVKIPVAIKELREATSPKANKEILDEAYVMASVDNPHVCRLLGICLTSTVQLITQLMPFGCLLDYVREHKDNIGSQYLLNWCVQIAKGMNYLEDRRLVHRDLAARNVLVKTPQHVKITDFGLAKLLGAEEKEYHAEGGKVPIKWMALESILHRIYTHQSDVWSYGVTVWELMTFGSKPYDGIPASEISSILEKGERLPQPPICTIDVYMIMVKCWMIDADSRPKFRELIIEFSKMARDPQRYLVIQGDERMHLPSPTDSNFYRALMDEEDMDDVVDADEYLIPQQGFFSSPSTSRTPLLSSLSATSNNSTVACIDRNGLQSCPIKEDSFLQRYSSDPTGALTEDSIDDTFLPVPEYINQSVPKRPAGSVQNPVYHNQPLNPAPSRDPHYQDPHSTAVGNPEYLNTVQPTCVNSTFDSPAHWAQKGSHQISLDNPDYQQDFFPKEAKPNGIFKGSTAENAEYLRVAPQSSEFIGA
Method: as §1, §2
Constitutive kinase activity of the recombinant protein was determined by its ability to phosphorylate a synthetic peptide (made up of a random co-polymer of Glutamic Acid, Alanine and Tyrosine in the ratio of 6:3:1). Specifically, Maxisorb™ 96-well immunoplates were coated with synthetic peptide (0.2 μg of peptide in a 100 μl phosphate buffered saline (PBS) solution and incubated at 4° C. overnight). Plates were washed in PBS-T (phosphate buffered saline with 0.5% Tween 20) then in 50 mM HEPES pH 7.4 at room temperature to remove any excess unbound synthetic peptide. […]
The immobilised phospho-peptide product of the reaction was detected by immunological methods. […] After further washing, HRP activity in each well of the plate was measured colorimetrically using 22′-Azino-di-[3-ethylbenzthiazoline sulfonate (6)] diammonium salt crystals (ABTS™ from Roche) as a substrate.
as §3

erbB2 = molecular target: T3, erbB2 (Homo sapiens, UniProt P04626); test: Clone 24 phospho-erbB2 cell assay, Test (e); type: cell-based; settings: MCF7 derived Clone 24 cells, 4 hrs; read-out: IC50 Test (e): Inhibition of erbB2 tyrosine kinase protein phosphorylation
T3 construct: to give a cell line that overexpresses full length wild type erbB2 protein; expressed in transfected cells; host or cells: MCF7 (breast carcinoma) derived 'Clone 24' cells
T3 sequence (P04626 23-1255): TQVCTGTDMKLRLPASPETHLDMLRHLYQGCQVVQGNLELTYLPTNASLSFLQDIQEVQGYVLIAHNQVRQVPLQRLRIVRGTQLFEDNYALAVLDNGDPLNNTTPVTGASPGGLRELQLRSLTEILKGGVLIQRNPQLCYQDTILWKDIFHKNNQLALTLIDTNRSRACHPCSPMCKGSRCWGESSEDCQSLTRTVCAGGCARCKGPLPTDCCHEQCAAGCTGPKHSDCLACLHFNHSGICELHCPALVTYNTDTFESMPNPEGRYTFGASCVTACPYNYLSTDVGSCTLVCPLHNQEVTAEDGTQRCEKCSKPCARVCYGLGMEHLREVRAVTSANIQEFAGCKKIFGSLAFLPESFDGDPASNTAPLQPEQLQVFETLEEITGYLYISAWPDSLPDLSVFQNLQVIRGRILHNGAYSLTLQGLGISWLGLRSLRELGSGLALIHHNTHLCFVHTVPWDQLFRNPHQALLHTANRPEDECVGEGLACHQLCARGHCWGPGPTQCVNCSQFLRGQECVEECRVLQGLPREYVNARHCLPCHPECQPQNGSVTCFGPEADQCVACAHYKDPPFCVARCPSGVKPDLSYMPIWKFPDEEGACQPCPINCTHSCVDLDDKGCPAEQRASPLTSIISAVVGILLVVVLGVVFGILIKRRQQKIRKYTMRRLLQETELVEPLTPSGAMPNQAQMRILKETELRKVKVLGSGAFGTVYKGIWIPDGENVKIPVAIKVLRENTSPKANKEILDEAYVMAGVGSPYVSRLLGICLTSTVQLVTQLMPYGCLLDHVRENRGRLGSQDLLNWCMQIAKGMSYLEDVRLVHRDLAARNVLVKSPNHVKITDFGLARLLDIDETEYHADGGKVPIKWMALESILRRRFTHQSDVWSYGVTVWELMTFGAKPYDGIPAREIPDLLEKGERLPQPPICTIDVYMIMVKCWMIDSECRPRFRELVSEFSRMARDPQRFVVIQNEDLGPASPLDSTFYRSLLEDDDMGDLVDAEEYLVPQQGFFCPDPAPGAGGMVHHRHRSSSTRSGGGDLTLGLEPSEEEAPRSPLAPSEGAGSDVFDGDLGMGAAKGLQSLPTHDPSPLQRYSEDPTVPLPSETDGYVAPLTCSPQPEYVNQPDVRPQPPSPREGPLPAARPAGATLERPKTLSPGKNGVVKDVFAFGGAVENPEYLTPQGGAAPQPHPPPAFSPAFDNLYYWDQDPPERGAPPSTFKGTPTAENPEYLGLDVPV
Method: This immunofluorescence end point assay measures the ability of a test compound to inhibit the phosphorylation of erbB2 in a MCF7 (breast carcinoma) derived cell line which was generated by transfecting MCF7 cells with the full length erbB2 gene using standard methods to give a cell line that overexpresses full length wild type erbB2 protein (hereinafter ‘Clone 24’ cells).
Clone 24 cells were cultured in Growth Medium (phenol red free Dulbecco's modified Eagle's medium (DMEM) containing 10% foetal bovine serum, 2 mM glutamine and 1.2 mg/ml G418) in a 7.5% CO2 air incubator at 37° C. Cells were harvested from T75 stock flasks by washing once in PBS (phosphate buffered saline, pH 7.4, Gibco No. 10010-015) and harvested using 2 mls of Trypsin (1.25 mg/ml)/ethylaminediaminetetraacetic acid (EDTA) (0.8 mg/ml) solution. The cells were resuspended in Growth Medium. Cell density was measured using a haemocytometer and viability was calculated using Trypan Blue solution before being further diluted in Growth Medium and seeded at a density of 1×10^4 cells per well (in 100 ul) into clear bottomed 96 well plates (Packard, No. 6005182).
3 days later, Growth Medium was removed from the wells and replaced with 100 ul Assay Medium (phenol red free DMEM, 2 mM glutamine, 1.2 mg/ml G418) either with or without erbB inhibitor compound. Plates were returned to the incubator for 4 hrs and then 20 μl of 20% formaldehyde solution in PBS was added to each well and the plate was left at room temperature for 30 minutes. This fixative solution was removed with a multichannel pipette, 100 μl of PBS was added to each well and then removed with a multichannel pipette and then 50 μl PBS was added to each well. Plates were then sealed and stored for up to 2 weeks at 4° C.
Immunostaining was performed at room temperature. Wells were washed once with 200 μl PBS/Tween 20 (made by adding 1 sachet of PBS/Tween dry powder (Sigma, No. P3563) to 1 L of double distilled H2O) using a plate washer then 200 μl Blocking Solution (5% Marvel dried skimmed milk (Nestle) in PBS/Tween 20) was added and incubated for 10 minutes. Blocking Solution was removed using a plate washer and 200 μl of 0.5% Triton X-100/PBS was added to permeabalise the cells. After 10 minutes, the plate was washed with 200 μl PBS/Tween 20 and then 200 μl Blocking Solution was added once again and incubated for 15 minutes. […]
The Fluorescence signal is each well was measured using an Acumen Explorer Instrument (Acumen Bioscience Ltd.), a plate reader that can be used to rapidly quantitate features of images generated by laser-scanning. […]

| SMILES | IC50 (erbB2 tyrosine kinase) [nM] | IC50 (KB cells) [nM] | IC50 (EGFR tyrosine kinase) [nM] | IC50 (erbB2) [nM] |
| --- | --- | --- | --- | --- |
| COC(=O)N1CCC(Oc2cc3c(Nc4cccc(Cl)c4F)ncnc3cc2OC)CC1 [Example 1, 4-(3-Chloro-2-fluoroanilino)-7-methoxy-6-{[1-(methoxycarbonyl)piperidin-4-yl]oxy}quinazoline] | 38 | 35 | 1 | 9 |
| COc1cc2ncnc(Nc3ccc(F)c(Cl)c3F)c2cc1OC1CCN(C(=O)OCCN2CCCC2)CC1 [Example 4, 4-(3-Chloro-2,4-difluoroanilino)-7-methoxy-6-{[1-{2-(pyrrolidin-1-yl)ethoxycarbonyl}piperidin-4-yl]oxy}quinazoline] | 2 | 15 | 2 | 29 |
| COc1cc2ncnc(Nc3cccc(Cl)c3F)c2cc1OC1CCN(C(=O)OCCN2CCCC2)CC1 [Example 2, 4-(3-Chloro-2-fluoroanilino)-7-methoxy-6-{[1-{2-(pyrrolidin-1-yl)ethoxycarbonyl}piperidin-4-yl]oxy}quinazoline] | 10 | 9 | 4 | 36 |
| COc1cc2ncnc(Nc3cccc(Cl)c3F)c2cc1OC1CCN(C(=O)OCCN2CCCCC2)CC1 [Example 6, 4-(3-Chloro-2-fluoroanilino)-7-methoxy-6-{[1-{2-(piperidin-1-yl)ethoxycarbonyl}piperidin-4-yl]oxy}quinazoline] | 2 | 10 | – | 41 |
